Measured values from publication PMC7685627, “In vitro investigation of metabolic fate of α-mangostin and gartanin via skin permeation by LC-MS/MS and in silico evaluation of the metabolites by ADMET predictor™” (BMC Complementary Medicine and Therapies, 2020).
“Also recorded” adds a separate entry of the source.

How the values were obtained:
[1] = test system: CYP2C family of enzymes; design: method as in Foti et al. [20]; settings: ref Foti et al. [20]; cited from earlier work
[2] = test system: CYP1A2; design: method as in Foti et al. [20]; settings: ref Foti et al. [20]; cited from earlier work
[3] = test system: HEKn cells; test: Papp, A-B from the previous permeation experiments; type: in vitro ADME, human; settings: experimental Papp, A-B versus S+MDCK predicted Papp; previous experiments ref 16
[4] = test system: HEKn cells; test: Metabolites during permeation across HEKn cell monolayer by LC-MS/MS; type: in vitro ADME, human; settings: positive scan mode
Description: Human epidermal keratinocyte (neonatal) (HEKn) (InvitrogenTM, Cat# C-001-5C Lot#1654391, Oregon, USA) cells were grown in T-25 flask at 37 °C in an atmosphere of 5% CO2. The adherent keratinocytes were cultured in low calcium (0.09 mM), serum-free, Epilife® medium, and supplement with Human Keratinocyte Growth Supplement (HKGS) at 1% v/v concentration. When a 500 ml of Epilife® medium was supplemented with HKGS the final concentration of the components in the supplement medium were: bovine pituitary extract (BPE) 0.2% v/v, bovine insulin 5 μg/ml, hydrocortisone 0.18 μg/ml, bovine transferrin 5 μg/ml and human epidermal growth factor 0.2 ng/ml. The medium was replaced regularly three times a week until the flask reaches 90% confluence (Fig. 2). The cells were moved from the flasks by incubating the monolayers with 0.5% trypsin for 2–3 min at 37 °C. The cells were collected into centrifuge tubes, and then centrifuged at 1000 rpm for 4 min and the pellets were resuspended in Epilife® medium. Cells used for this study were in third and fourth passage in late sub confluency.
HEKns cells were seeded at a density of 1 × 10^5 cells/cm^2 on permeable supports (Transwell® Costar, 0.4 μm pore size) as shown in Fig. 3. […] The integrity of the HEKns cell monolayer in the transwell plates was determined by measuring Trans Epithelial Electrical Resistance (TEER). […]

[5] = test system: HEKn cells; design: method as in PMID 32615127; settings: gartanin 9 μM, compound alone; previous experiments ref 16; cited from earlier work

Structure (SMILES): COc1c(O)cc2oc3cc(O)c(CC=C(C)C)c(O)c3c(=O)c2c1CC=C(C)C [α-mangostin]
- Inhibition of CYP [1]: potent inhibited
- Metabolizing CYP isoform [2]: metabolized primarily by CYP1A2
- Papp, A-B from experiments lower than predicted Papp [3]: 3 fold
- Metabolism identified by LC-MS/MS [4]: might be metabolized via tri-oxidation process

Structure (SMILES): CC(C)=CCc1c(O)c(CC=C(C)C)c2oc3c(O)ccc(O)c3c(=O)c2c1O [Gartanin]
- Papp, A-B [5]: could not be detected
- Metabolism identified by LC-MS/MS [4]: might be conjugated to sulfated derivatives; also recorded: not found to be metabolized in phase I metabolism
